Results taken from patent publication US20120010272A1, “RNA Interference Mediated Inhibition of Apoptosis Signal-Regulating Kinase 1 (ASK1) Gene Expression Using Short Interfering Nucleic Acid (siNA)” (Merck Sharp & Dohme Corp., priority 2009, published 2012).
[invAb] = inverted abasic unit; m = 2'-O-methyl; r = 2'-OH (RNA); f = 2'-fluoro

Legend:
[1] = test system: ASK1 mRNA; assay: ASK1 mRNA knock-down by siNA in human A549 cells (RNAiMax transfection, Taqman RT-PCR); type: cell-based; conditions: 10 nM siNA, 24 hrs post-transfection, vs non-targeting control, GAPDH-normalized, mean ± S.D., two experiments
Method: A549 (human; ATCC cat #CCL-185): Cells were cultured at 37° C. in the presence of 5% CO2 and grown in Ham's F12K medium with 2 mM L-glutamine adjusted to contain 1.5 g/L sodium bicarbonate and supplemented with fetal bovine serum at a final concentration of 10%, 100 μg/mL of streptomycin, and 100 U/mL penicillin.
(§1) Cells were plated in all wells of a tissue-culture treated, 96-well plate at a final count of 5000 cells/well (A549 cell line) and 3,500 cells/well (Hepal-6 cell line) in 100 μL of the appropriate culture media. The cells were cultured for 24 hours after plating at 37° C. in the presence of 5% CO2.
(§2) After 24 hours, complexes containing siNA and RNAiMax were created as follows: A solution of RNAiMax diluted 33-fold in OPTI-MEM was prepared. In parallel, solutions of the siNAs for testing were prepared to a final concentration of 120 nM in OPTI-MEM. After incubation of RNAiMax/OPTI-MEM solution at room temperature for 5 min, an equal volume of the siRNA solution and the RNAiMax solution were added together for each of the siNAs.
(§3) This solution was incubated at room temperature for 20 minutes. After incubation, 20 uL of the solution was added to each of the relevant wells. The final concentration of siNA in each well was 10 nM and the final volume of RNAiMax in each well was 0.3 ul.
(§4) The time of incubation with the RNAiMax-siNA complexes was 24 hours and there was no change in media between transfection and harvesting, unless otherwise indicated.
(§5) RNA was extracted from a 96-well plate using the TaqMan® Gene Expression Cells-to-CT™ Kit (Cat #4399002) with a modified protocol. Briefly, a 60 uL (1 plate) or 110 uL (2 plates) of the Lysis Solution with DNase I was dispensed into each well of the Lysis Buffer Plate (twin.tec full skirt plate). The lysis buffer and stop plates were stored at 4° C. until the cells were washed.
(§6) The plate was spun at 1100 rpm for 5 minutes. The culture medium was aspirated and discarded from the wells of the culture plate. The lysis was performed automatically using a BioMek FX instrument and method. After the Biomek method was completed, the lysis plate was incubated for 2 min. at room temperature. The lysis plate can be stored for 2 hours at 4° C., or at −20° C. or −80° C. for two months.
(§7) Each well of the reverse transcription plate required 10 uL of 2× reverse transcriptase Buffer, 1 uL of 20× reverse transcription enzyme and 2 uL of nuclease-free water. The reverse transcription master mix was prepared by mixing 2× reverse transcription buffer, 20× reverse transcription enzyme mix, and nuclease-free water. 13 uL of the reverse transcription master mix was dispensed into each well of the reverse transcription plate (semi-skirted). A separate reverse transcription plate was prepared for each cell plate. The plate was loaded onto a Biomek NX or Biomek FX Dual-96 and the Biomek method was run. The program is programmed to automatically added 7 uL of lysate from the cell lysis procedure described above into each well of the reverse transcription plate. The plate is sealed and spun on a centrifuge (1000 rpm for 30 seconds) to settle the contents to the bottom of the reverse transcription plate. The plate is placed in a thermocycler at 37° C. for 60 min, 95° C. for 5 min, and 4° C. until the plate is removed from the thermocycler. Upon removal, if not used immediately, the plate was frozen at −20° C.
(§8) A series of probes and primers were used to detect the various mRNA transcripts of the genes of ASK1, ASK2, and GAPDH in human cell lines and ASK1 and GAPDH in mouse cell lines. All Taqman probes and primers for the experiments were supplied as pre-validated sets by ABI (see Table 2).
(§9) The assays were performed on an ABI 7900 instrument, according to the manufacturer's instructions. A TaqMan Gene Expression Master Mix (provided in the Cells-to-CT™, Applied Biosystems, Cat #4399002) was used. […]

[2] = test system: ASK1 mRNA; assay: ASK1 mRNA knock-down by siNA in mouse Hepa1-6 cells (RNAiMax transfection, Taqman RT-PCR); type: cell-based; conditions: 10 nM siNA, 24 hrs post-transfection, vs non-targeting control, GAPDH-normalized, mean ± S.D., two experiments
Method: Hepal-6 (murine; ATCC cat #CRL-1830): Cells were cultured at 37° C. in the presence of 5% CO2 and grown in Dulbecco's modified Eagle's medium (DMEM) with 4 mM L-glutamine adjusted to contain 1.5 g/L sodium bicarbonate and 4.5 g/L glucose and supplemented with 10% of fetal bovine serum, 100 μg/mL of streptomycin, and 100 U/mL penicillin.
as §1, §2, §3, §4, §5, §6, §7, §8, §9

| Substance | % KD Human [1] [%] | % KD Mouse [2] [%] |
| --- | --- | --- |
| 25395-DC: siNA duplex, sense B cuGAuGAcAAGAAAGGuAu TTB, antisense AUAccuuucuuGucAucAGUU (SEQ ID NO: 71/72), human ASK1 target site 2139 (sense CUGAUGACAAGAAAGGUAUTT; antisense AUACCUUUCUUGUCAUCAGUU; chemistry not fully specified) | 32 ± 12 | 6 ± 15 |
| 25392-DC: siNA duplex, sense B cAcuGAccGAAAAAucAuA TTB, antisense UAUGAuuuuucGGucAGuGUU (SEQ ID NO: 65/66), human ASK1 target site 3661 (sense CACUGACCGAAAAAUCAUATT; antisense UAUGAUUUUUCGGUCAGUGUU; chemistry not fully specified) | 67 ± 6 | 63 ± 1 |
| 25400-DC: siNA duplex, sense B ccAcuGAccGAAAAAucAu TTB, antisense AUGAuuuuucGGucAGuGGUU (SEQ ID NO: 81/82), human ASK1 target site 3660 (sense CCACUGACCGAAAAAUCAUTT; antisense AUGAUUUUUCGGUCAGUGGUU; chemistry not fully specified) | 86 ± 4 | 74 ± 1 |
| 25384-DC: siNA duplex, sense B GGAAcAGccuucAAAucAA TTB, antisense UUGAuuuGAAGGcuGuuccUU (SEQ ID NO: 49/50), human ASK1 target site 3958 (sense GGAACAGCCUUCAAAUCAATT; antisense UUGAUUUGAAGGCUGUUCCUU; chemistry not fully specified) | 82 ± 1 | 61 ± 0 |
| 25390-DC: siNA duplex, sense B GGcuGAAGAuuAuAcAcuA TTB, antisense UAGuGuAuAAucuucAGccUU (SEQ ID NO: 61/62), human ASK1 target site 4354 (sense GGCUGAAGAUUAUACACUATT; antisense UAGUGUAUAAUCUUCAGCCUU; chemistry not fully specified) | 93 ± 1 | −18 ± 14 |
| 25396-DC: siNA duplex, sense B cAAGcAAAAAGAAAAAGAc TTB, antisense GUCuuuuucuuuuuGcuuGUU (SEQ ID NO: 73/74), human ASK1 target site 3183 (sense CAAGCAAAAAGAAAAAGACTT; antisense GUCUUUUUCUUUUUGCUUGUU; chemistry not fully specified) | 90 ± 1 | 75 ± 1 |
| 25380-DC: siNA duplex, sense B GAuGGAAAuucuAAAAAuu TTB, antisense AAUuuuuAGAAuuuccAuCUU (SEQ ID NO: 41/42), human ASK1 target site 4508 (sense GAUGGAAAUUCUAAAAAUUTT; antisense AAUUUUUAGAAUUUCCAUCUU; chemistry not fully specified) | 91 ± 0 | −7 ± 11 |
| 25386-DC: siNA duplex, sense B GAGcAAccAAGucAGAAuu TTB, antisense AAUucuGacuuGGuuGcucUU (SEQ ID NO: 53/54), human ASK1 target site 2461 (sense GAGCAACCAAGUCAGAAUUTT; antisense AAUUCUGACUUGGUUGCUCUU; inverted abasic end caps, TT overhang, chemistry not fully specified) | 80 ± 1 | 53 ± 1 |
| 25391-DC: siNA duplex, sense B cAGAGGccAAGGcAuucAu TTB, antisense AUGAAuGccuuGGccucuGUU (SEQ ID NO: 63/64), human ASK1 target site 3087 (sense CAGAGGCCAAGGCAUUCAUTT; antisense AUGAAUGCCUUGGCCUCUGUU; chemistry not fully specified) | 11 ± 38 | −3 ± 4 |
| 25382-DC: siNA duplex, sense B ccAGAAcuAAGGccAcAuu TTB, antisense AAUGuGGccuuAGuucuGGUU (SEQ ID NO: 45/46), human ASK1 target site 3875 (sense CCAGAACUAAGGCCACAUUTT; antisense AAUGUGGCCUUAGUUCUGGUU; chemistry not fully specified) | 20 ± 4 | −26 ± 10 |
| 25394-DC: siNA duplex, sense B uucGGAAucAuAAcAucAA TTB, antisense UUGAuGuuAuGAuuccGAAUU (SEQ ID NO: 69/70), human ASK1 target site 3786 (sense UUCGGAAUCAUAACAUCAATT; antisense UUGAUGUUAUGAUUCCGAAUU; chemistry not fully specified) | 76 ± 8 | 60 ± 6 |
| 25374-DC: siNA duplex, sense B GcAcuGGGAAcuAcAccuu TTB, antisense AAGGuGuAGuucccAGuGcUU (SEQ ID NO: 29/30), human ASK1 target site 978 (sense GCACUGGGAACUACACCUUTT; antisense AAGGUGUAGUUCCCAGUGCUU; chemistry not fully specified) | 19 ± 4 | 43 ± 12 |
| 25381-DC: siNA duplex, sense B GcGAGGcccuGcAGAGcuu TTB, antisense AAGcucuGcAGGGccucGcUU (SEQ ID NO: 43/44), human ASK1 target site 690 (sense GCGAGGCCCUGCAGAGCUUTT; antisense AAGCUCUGCAGGGCCUCGCUU; chemistry not fully specified) | 70 ± 2 | 45 ± 2 |
| 25397-DC: siNA duplex, sense B AGccAGuAcuuccGGGAAu TTB, antisense AUUcccGGAAGuAcuGGcuUU (SEQ ID NO: 75/76), human ASK1 target site 1166 (sense AGCCAGUACUUCCGGGAAUTT; antisense AUUCCCGGAAGUACUGGCUUU; chemistry not fully specified) | 60 ± 0 | 78 ± 7 |
| 25393-DC: siNA duplex, sense B GGuucAAAAAGGcAuuuGA TTB, antisense UCAAAuGccuuuuuGAAccUU (SEQ ID NO: 67/68), human ASK1 target site 1614 (sense GGUUCAAAAAGGCAUUUGATT; antisense UCAAAUGCCUUUUUGAACCUU; chemistry not fully specified) | 88 ± 5 | 77 ± 2 |
| 25398-DC: siNA duplex, sense B GuGAcAGcAGcuucAuGAA TTB, antisense UUCAuGAAGcuGcuGucAcUU (SEQ ID NO: 77/78), human ASK1 target site 1038 (sense GUGACAGCAGCUUCAUGAATT; antisense UUCAUGAAGCUGCUGUCACUU; sense: DNA at AGT, 2'-fluoro at CU, [invAb] at 5' end, 3' end, backbone not given here; antisense: sugars from the 5' end rrrmfmmmmffmffmffmfmm, backbone not given here) | 38 ± 6 | 51 ± 2 |
